Measured values taken from patent US7700584B2 (Hangzhou Minsheng Pharmaceuticals Co., Ltd., priority 2004, dated 2010).
Values after ≈ are worked out from the molar mass of the structure shown. Read-outs that look alike come from different tables or passages of the source.

Key:
[1] = system: SMMC-7721 human hepatic carcinoma; assay: In vitro inhibition rate to tumor cells (MTT), SMMC-7721; format: cell-based; details: for inhibition rate, Results (%) SMMC-7721: 50 μg/ml; for inhibition at 50 µg/mL: Homo sapiens, SMMC-7721, 50 μg/ml, read-out: inhibition rate, Results (%) SMMC-7721
293 cells = assay: Cell status of 293 cells treated with sample alone (herpes virus screening)
[2] = system: U-937 human histocytic lymphoma; assay: In vitro anti-tumor IC50 (MTT), U-937; format: cell-based; details: Table 4
Description: (§1) (1) Single cell suspension was seeded into 96-well plates (the cells was diluted in the PRMI-1640 minimum medium to 3×10^4 cells/ml, […] diluted cells/well). […] The experiments were performed in quadruplicate.
(§2) (2) The medium was removed. Solutions of the anti-tumor agents (50 compounds) were prepared in a freshly prepared medium at serial concentrations. […] of the solution was added into each well. Incubation was continued for 48 hours.
(§3) (3) 20 ug of 2 mg/ml MTT was added into each well, and incubated for 4 hours.
(§4) (4) The medium was removed from the well. The microplates were swiftly turned down to throw-off the medium. […] of DMSO was added into each well, and vortexed at room temperature for 10 minutes.
(§5) (5) OD value (λ=570 nm) was measured with an Enzyme-Linked Detector.
(§6) (6) The graph of cell vitality was plotted, and IC50 was calculated.

[3] = system: MCF-7 human mammary adenocarcinoma; assay: In vitro inhibition rate to tumor cells (MTT), MCF-7; format: cell-based; details: for inhibition rate, Results (%) MCF-7: 50 μg/ml; for inhibition at 50 µg/mL: Homo sapiens, MCF7, 50 μg/ml, read-out: inhibition rate, Results (%) MCF-7
[4] = system: LLC mouse Lewis lung carcinoma; assay: In vitro inhibition rate to tumor cells (MTT), LLC; format: cell-based; details: 50 μg/ml; for inhibition at 50 µg/mL: Mus musculus, Lewis lung carcinoma
[5] = system: U-937 human histocytic lymphoma; assay: In vitro inhibition rate to tumor cells (MTT), U-937; format: cell-based; details: for inhibition rate, Results (%) U-937: 50 μg/ml; for inhibition at 50 µg/mL: Homo sapiens, U-937, 50 μg/ml, read-out: inhibition rate, Results (%) U-937
[6] = system: Hela human cervical carcinoma; assay: In vitro anti-tumor IC50 (MTT), Hela; format: cell-based; details: Table 4
Description: as §1, §2, §3, §4, §5, §6

MDCK (dog kidney) cells = assay: Toxicity TC50 of the samples in MDCK cells (influenza screening); details: concentration of 50% toxicity
Hepatitis B virus (HBV) = format: cell-based; details: 200 μg/ml; for (Value of the positive control - Measured Value) Value of the positive control × 100%: decrease of HBeAg relative to positive control; for OD450 of HBeAg: supernatant four days after infection, positive control 1.917, negative 0.057
[7] = format: cell-based, VSV; details: 200 μg/ml, 24 hrs after infection
[8] = system: Hela human cervical carcinoma; assay: In vitro inhibition rate to tumor cells (MTT), Hela; format: cell-based; details: 50 μg/ml; for inhibition at 50 µg/mL: Homo sapiens, HeLa, read-out: inhibition rate, Results (%) Hela
[9] = system: A-549 human lung adenocarcinoma; assay: In vitro inhibition rate to tumor cells (MTT), A-549; format: cell-based; details: for inhibition rate, Results (%) A-549: 50 μg/ml; for inhibition at 50 µg/mL: Homo sapiens, A549, 50 μg/ml, read-out: inhibition rate, Results (%) A-549
HepG2 cells = assay: Cell status of HepG2 cells treated with sample (HBV screening); format: cell-based; details: 200 μg/ml, HepG2, four days after infection
[10] = system: Bel-7402 human hepatic carcinoma; assay: In vitro inhibition rate to tumor cells (MTT), Bel-7402; format: cell-based; details: for inhibition rate, Results (%) Bel-7402: 50 μg/ml; for inhibition at 50 µg/mL: Homo sapiens, Bel-7402, 50 μg/ml, read-out: inhibition rate, Results (%) Bel-7402
[11] = system: HL-60 human promyelocytic leukemia; assay: In vitro inhibition rate to tumor cells (MTT), HL-60; format: cell-based; details: for inhibition rate, Results (%) HL-60: 50 μg/ml; for inhibition at 50 µg/mL: Homo sapiens, HL-60, 50 μg/ml, read-out: inhibition rate, Results (%) HL-60
[12] = system: Ehrlich's ascites carcinoma (EAC); details: 75 mg/Kg, subcutaneous injection; cited from earlier work
[13] = background statement; cited from earlier work
uterine cervix cancer = details: 75 mg/Kg, subcutaneous injection; cited from earlier work
mouse sarcoma 37 = details: 75 mg/Kg, subcutaneous injection; cited from earlier work
[14] = 50 μg/ml, 293 cells without virus, 12 hrs

CCCCNC=C1CC2(O)OC3(CC2C(C)C)C(C)CCC13.Cl (centres unmarked) [Compound 14, Curcumol n-butyl amine hydrochloride]
inhibition rate, Results (%) SMMC-7721 ([1]; Table 1): 6.14%
inhibition rate, Results (%) SMMC-7721 ([1]; Table 2 (repeated screening)): 3.21%
Cytopathy and cell status, Sample (293 cells; [14]): Good
Cytopathy and cell status, Sample (293 cells; 200 μg/ml, 24 hrs): Poor
IC50 (ug/ml) against tumor cell lines, U-937 [2]: 0.58 µg/mL
inhibition rate, Results (%) MCF-7 ([3]; Table 1): 56.30%
inhibition rate, Results (%) MCF-7 ([3]; Table 2 (repeated screening)): 54.23%
inhibition rate, Results (%) LLC ([4]; Table 1): −10.57%
inhibition rate, Results (%) LLC ([4]; Table 2 (repeated screening)): −14.29%
inhibition rate, Results (%) U-937 ([5]; Table 1): 82.88%
inhibition rate, Results (%) U-937 ([5]; Table 2 (repeated screening)): 81.23%
IC50 (ug/ml) against tumor cell lines, Hela [6]: 1.5 µg/mL
TC50 (MDCK (dog kidney) cells): 143.17 µg/mL
(Value of the positive control - Measured Value) Value of the positive control × 100% (Hepatitis B virus (HBV)): 97.24%
OD450 of HBeAg (Hepatitis B virus (HBV)): 0.053
Cytopathy and cell status, Sample + VSV [7]: Cytopathy, poor
inhibition rate, Results (%) Hela ([8]; Table 1): 75.46%
inhibition rate, Results (%) Hela ([8]; Table 2 (repeated screening)): 76.32%
inhibition rate, Results (%) A-549 ([9]; Table 1): 8.09%
inhibition rate, Results (%) A-549 ([9]; Table 2 (repeated screening)): 9.23%
Cell status (HepG2 cells): Poor
inhibition rate, Results (%) Bel-7402 ([10]; Table 1): 32.00%
inhibition rate, Results (%) Bel-7402 ([10]; Table 2 (repeated screening)): 23.56%
inhibition rate, Results (%) HL-60 ([11]; Table 1): 2.45%
inhibition rate, Results (%) HL-60 ([11]; Table 2 (repeated screening)): 4.35%

C=C1CC2(O)OC3(CC2C(C)C)C(C)CCC13 (centres unmarked) [Curcumol E, Curcumol, reference compound]
inhibition at 50 µg/mL ([1]; Table 1): -11.5%
inhibition at 50 µg/mL ([1]; Table 2 (repeated screening)): -12.3%
inhibition at 50 µg/mL ([1]; Table 3 (repeated screening)): -0.23%
Cytopathy and cell status, Sample (293 cells; [14]): Good
inhibition at 50 µg/mL ([3]; Table 1): 55.6%
inhibition at 50 µg/mL ([3]; Table 2 (repeated screening)): 50.2%
inhibition at 50 µg/mL ([3]; Table 3 (repeated screening)): 51.2%
inhibition at 50 µg/mL ([4]; Table 1): -3.04%
inhibition at 50 µg/mL ([4]; Table 2 (repeated screening)): -8.9%
inhibition at 50 µg/mL ([4]; Table 3 (repeated screening)): -14.4%
inhibition at 50 µg/mL ([5]; Table 1): 28%
inhibition at 50 µg/mL ([5]; Table 2 (repeated screening)): 14.3%
inhibition at 50 µg/mL ([5]; Table 3 (repeated screening)): 19.8%
inhibition rate against Ehrlich's ascites carcinoma (in words) [12]: high inhibition rate
IC50 ([6]; Homo sapiens, HeLa, read-out: IC50 (ug/ml) against tumor cell lines, Hela): 3.23 µg/mL (≈ 13.7 µM)
water solubility (in words) [13]: Poor water solubility
TC50 (MDCK (dog kidney) cells): >1000 µg/mL
(Value of the positive control - Measured Value) Value of the positive control × 100% (Hepatitis B virus (HBV)): −38.4455%
OD450 of HBeAg (Hepatitis B virus (HBV)): 2.654
inhibition at 50 µg/mL ([8]; Table 1): 86.8%
inhibition at 50 µg/mL ([8]; Table 2 (repeated screening)): 70.1%
inhibition at 50 µg/mL ([8]; Table 3 (repeated screening)): 78.6%
inhibition at 50 µg/mL ([9]; Table 1): -0.57%
inhibition at 50 µg/mL ([9]; Table 2 (repeated screening)): -11.3%
inhibition at 50 µg/mL ([9]; Table 3 (repeated screening)): -16.6%
inhibition rate against uterine cervix cancer (in words) (uterine cervix cancer): high inhibition rate
Cell status (HepG2 cells): Normal
inhibition at 50 µg/mL ([10]; Table 1): 4.79%
inhibition at 50 µg/mL ([10]; Table 2 (repeated screening)): 9.87%
inhibition at 50 µg/mL ([10]; Table 3 (repeated screening)): 9.78%
inhibition rate against mouse sarcoma 37 (in words) (mouse sarcoma 37): high inhibition rate
inhibition at 50 µg/mL ([11]; Table 1): 1.32%
inhibition at 50 µg/mL ([11]; Table 2 (repeated screening)): 1.23%
inhibition at 50 µg/mL ([11]; Table 3 (repeated screening)): 1.79%
